Data as given in patent publication US20170224711A1, “COMPOSITIONS AND METHODS FOR THE TREATMENT OF NEURODEGENERATIVE DISEASES” (University of Houston System, priority 2014, published 2017).
“Also recorded” adds a separate entry of the source.

Columns and labels:
[1] = test system: Human Ovarian cancer cells, A2780; experiment: CHIP array: whole genome expression (HumanHT-12 v4.0 BeadChip); type: cell-based; conditions: 12 or 24 hours, vs control or untreated cells; for Fold change expression of ATF / Fold change expression of NMDAR2C: direction ↑; for Fold change expression of RAB27A / Fold change expression of SLC39A3: direction ↓
Protocol: Human Ovarian cancer cells, A2780, were treated with compound and different concentration for 12 or 24 hours. The total RNA from the treated human cells were extracted by Trizol (Invitrogen) and purified by Rneasy Mini kit (Qiagen, Valencia, Calif.). The concentration and integrity of all RNA samples were assessed using the NanoDrop ND-2000 spectrophotometer (NanoDrop Technologies, Wilmington, Del.) and the Bioanalyzer 2100 system (Agilent Technologies, Santa Clara, Calif.). 1 ug of total RNA from each sample were subjected to whole-genome gene expression analysis at the Microarray Core Facility of University of Texas Southwestern Medical Center (https://microarray.swmed.edu) using the HumanHT-12 v4.0 BeadChip (Illumina, San Diego, Calif.) according to the manufacturer's instructions. Microarray data were extracted using BeadStudio v3.1 software, background-subtracted, and normalized using a cubic spline algorithm. Genes differentially expressed between groups were identified using the Illumina custom error model implemented in BeadStudio. […] The pathways and interaction networks that the genes involved were further analyzed by Ingenuity Pathyway analysis software (www.ingenuity.com).
The treatment of A2780, human ovarian cancer cell line at different concentrations were examined for the differential gene expression compared to the whole human genome and compared to untreated samples (controls). A representative heat map reflecting the fold change in expressions of genes modulated by RRD2 involved in neurodegenerative diseases is shown in FIG. 3. […] These genes are implicated in neurological disorders and neurodegenerative diseases and the modulation of these genes by Phosphaplatins is significant for providing neuroprotection.

[2] = test system: A2780 ovarian cancer cells; experiment: Western blot protein expression; type: cell-based, human; conditions: for ATF3 protein expression compared to control / HPD protein expression compared to control / NMDAR2C protein expression compared to control / RAB27A protein expression compared to control / SLC39A3 (ZIP3) protein expression compared to control / SQSTM1 protein expression compared to control: 24 hrs treatment, Western blot
Protocol: A2780 ovarian cancer cells cell line was cultured in 60 or 100 mm^3 cell culture dishes. Once the plated were 80% confluent, the cells were incubated in the presence and absence of either R,R-D2 or R,R-D4. After 24 hrs of drug treatment, proteins were extracted from the cells using 200-500 μl of either RIPA or MPER protein extraction reagent buffer or both. Halt protease inhibitor cocktail from Thermo Fisher was added to the protein extraction reagents. The protein concentration was measured using BCA kit from Promega. The freshly extracted proteins (40 to 50 μg) were run on a 4-12% or 4-20% tris-glycine gels, at 120 V for 2 to 3 hours after which the proteins were transferred onto nitrocellulose membranes for one hour. Then the blots were incubated in 5% milk. The following primary antibodies were incubated overnight in 5% milk. These antibodies include: mouse anti-rabbit IgG-FITC, mouse anti-goat IgG-PE, anti-mouse IgG2a-PE, SQSTM1 (D-3), Egr-2 (H-220), ZIP3 (D-14), TOX1 (T-12), ATF-3 (H-90), NMDAμ4 (C-20), HPPD (H-300), Fos B (C-20), PPT2 (C-18), Hep G2 Cell Lysate, TMEM106B (C-12), xCT (Q-18) after which the proteins were detected by species-specific HRP-conjugated secondary antibody using ECL chemiluminescence kit purchased from GE health care.
To confirm that the modulation of the genes listed in Table 1, following treatment with RRD2 and RRD4 in the human ovarian cancer cell line, A2780, also affects the protein expression of these genes, some representative genes from Table 1 were assessed for their corresponding protein expression as measured by Western Blot using protein specific antibodies. The protein expressions for HPD, SQSTM1, ATF3, NMDAR2C were higher compared to the control samples while RAB27A and SLC39A3 (ZIP3) expressions were lower than the control samples following treatment with the aforementioned compounds (FIGS. 4A-4B). Note that HPD and NMDAR2C were calibrated against both actin and GADPH (FIG. 4C). As indicated in the Tables, overexpressed proteins/genes are implicated in protecting neurons from a variety of neurodegenerative diseases.

[3] = test system: hippocampal slices, CA1 pyramidale layer; experiment: Whole cell current-clamp recordings of action potentials in hippocampal slices; type: cell-based; conditions: rat hippocampal slices perfused with 20 μM, vs control, N=6
Protocol: (§1) Sprague-Dawley male rats (P14-18) were deeply anesthetized with ether and after the decapitation, the brains were removed rapidly and laced in the fresh high sucrose dissection solution. After hippocampus isolation, hippocampal slices ([…]) were prepared using a Vibratome. The prepared slices were incubated in the artificial cerebrospinal fluid (ACSF) (pH 7.3) for half an hour. After incubating period, slices were transferred to recording chamber while oxygenated ACSF was continuously perfused constantly with the rate of 2 ml/min at 30° C. Borosilicate glass recording electrodes were filled with 0.9% NaCl (1-2 MΩ) and used for extracellular field potential recordings. Extracellular recordings were done from the border area between radiatum and pyramidale layers. Filled micropipettes (4-7 MΩ) containing intracellular solution were used for whole cell current-clamp recordings in the CA1 pyramidale layer. To elicit action potential activity, depolarizing square wave current pulses incremented by 20 pA were injected into the somas for 500-1000 ms, followed by 10 ms return to the baseline holding membrane potential (−80 mV). In addition, to square wave current pulses, slow depolarizing ramp-like current injections were used to quantify action potential threshold values. Neuronal membrane and field potential recordings were performed in control and in the RRD4 groups. RDD4 group brain slices were perfused with 20 μM RRD4. Zero magnesium model of inducing epileptiform activities was used in these experiments. In the treated group slices were incubated in 20 μM RRD4 for 15 minutes, and then were exposed to zero magnesium solution.
The neurodegeneration observed in many diseases has been associated with a progressive decrease in neuronal activity and synaptic dismantling is associated with many neurodegenerative diseases. A potential strategy for preventing and/or halting neurodegenerative disease is by modulating intrinsic properties of individual neurons. Applicants observed that RRD4 pretreatment increased action potential threshold (FIG. 5). Action potential threshold was measured at the beginning of the sharp upward rise of the depolarizing phase of the action potential. (*P<0.05). Based on the data, RRD4 increases action potential (AP) threshold and decreases its amplitude. […] Further, pretreated slices with RRD4 had lower peak potential amplitude (FIG. 6). Mean values for the AP amplitude is voltage difference in 10-90% rise time in each action potential. (*P<0.05).

hippocampal slices = experiment: Zero magnesium model of epileptiform activity in hippocampal slices; type: cell-based, rat; conditions: slices incubated in 20 μM for 15 minutes, then zero magnesium solution, N=6
Protocol: as §1, with “RDD4 group brain slices were perfused with 20 μM RRD4. Zero magnesium model of inducing epileptiform activities was used in these experiments. In the treated group slices were incubated in 20 μM RRD4 for 15 minutes, and then were exposed to zero magnesium solution.” left out

SMILES	Fold change expression of ATF [1]	Fold change expression of NMDAR2C [1]	Fold change expression of RAB27A [1]	Fold change expression of SLC39A3 [1]	RAB27A protein expression vs untreated cells ([2]; 20 μM, FIG. 4A)	ATF3 protein expression compared to control [2]	HPD protein expression compared to control [2]	NMDAR2C protein expression compared to control [2]	RAB27A protein expression compared to control [2]	SLC39A3 (ZIP3) protein expression compared to control [2]	SQSTM1 protein expression compared to control [2]	Action potential (AP) amplitude [3]	Action potential (AP) threshold [3]	Input resistance [3]	Membrane depolarization in treated cells [3]	RAB27A protein expression vs untreated cells ([2]; 25 μM, FIG. 4A)	SQSTM protein expression vs untreated cells ([2]; 25 μM, FIG. 4A)	Time to seizure onset (seizure threshold, first seizure formation) (hippocampal slices)
N[C@@H]1CCCC[C@H]1N.O=P([O-])(O)OP(=O)([O-])O.[Pt+2] [RRD2]	10↑ fold	8↑ fold	1.7↓ fold	2↓ fold	overexpressed in untreated cells as compared to cells treated	higher	higher	higher	lower	lower	higher							
NC1CCCCC1N.O=P1(O)OP(=O)(O)[O][Pt]([OH])([OH])[O]1 [RRD4]	10↑ fold	8↑ fold	1.7↓ fold	2↓ fold		higher	higher	higher	lower	lower	higher	lower; also recorded: decreased significantly	increased; also recorded: raised	no effect	significantly more depolarized	overexpressed in untreated cells as compared to cells treated	enhanced expression	significant effect in delaying; also recorded: significantly delayed
